Laboratory results taken from article PMC9674830, “A glutamine-based single α-helix scaffold to target globular proteins” (Nature Communications, 2022).
Like-named read-outs stand apart in the source and are kept apart here. Starred links: 1 amine or outer side, 2 acyl side, 3 side chain; linkers in the order of their positions; H or OH if unused. Positions of bridges follow the written chain, without caps; N, C: chain ends. Non-standard residues stand in square brackets, D forms with d. Residues, ends and D or L forms follow the SMILES beside them. No end group written: not given here. ξ: configuration not given here. ξαMeNle(6-ylidene) = CC(CCCC=[*:3])(N[*:1])C(=O)[*:2]

Assays:
[1] = Peptide stability in human serum; assay type: in vitro ADME; conditions: for peptide in human serum over time, mean / remaining at 0.08 h, 300 μM / remaining at 0.25 h, 300 μM / remaining at 0.5 h, 300 μM / remaining at 1 h, 300 μM / remaining at 4 h, 300 μM / remaining at 6 h, 300 μM / remaining at 8 h, 300 μM / remaining at 24 h, 300 μM: SD, human serum, mean; for peptide in human serum over time, mean: in % (unit assumed); for remaining at 0.08 h, 300 μM: Time 0.08 (time unit inferred); for remaining at 0.08 h, 300 μM / remaining at 0.25 h, 300 μM / remaining at 0.5 h, 300 μM / remaining at 1 h, 300 μM / remaining at 4 h, 300 μM / remaining at 6 h, 300 μM / remaining at 8 h, 300 μM / remaining at 24 h, 300 μM: read-out: peptide in human serum over time, mean; for remaining at 0.25 h, 300 μM: Time 0.25 (time unit inferred); for remaining at 0.5 h, 300 μM: Time 0.50 (time unit inferred); for remaining at 1 h, 300 μM: Time 1.00 (time unit inferred); for remaining at 4 h, 300 μM: Time 4.00 (time unit inferred); for remaining at 6 h, 300 μM: Time 6.00 (time unit inferred); for remaining at 8 h, 300 μM: Time 8.00 (time unit inferred); for remaining at 24 h, 300 μM: Time 24.00 (time unit inferred); for half-life at 300 μM: human serum (Sigma-Aldrich), 1.5 mM peptide in 20 mM sodium phosphate pH 7.4 diluted 1:9, final 300 μM, 310 K, 24 h, methanol precipitation, HPLC peak area of intact peptide vs t = 0, three independent replicates
Experimental: Supplementary Figure 2 | Stability in human serum and internalization in human cells of peptides (P3-7)3 and (P3-7)3 Ctrl. a Human serum stability assay of peptides (P3-7)3, (P3-7)3 Ctrl and Angiopep-2 (sequence:
, a positive control for this assay 1), measured at increasing time points by monitoring the area of the HPLC peak corresponding to the intact peptide over the area of the same peak at t = […]
Peptide stability in human serum
1.5 mM solutions of the P(3-7)3, P(3-7)3 Ctrl and Angiopep-2 peptides were prepared as detailed above in 20 mM sodium phosphate, pH 7.4 and diluted in human serum (Sigma-Aldrich, Burlington, MA, USA) (1:9 dilution) to a final concentration of 300 μM. The incubation was performed at 310 K for 24 h, taking aliquots of 50 μL at several time points.
These samples were treated with 400 μL of methanol to precipitate the serum proteins and centrifuged for 30 min at 277 K. The supernatant was filtered and analyzed by HPLC to calculate the percentage of intact peptide in the sample. HPLC chromatograms were obtained on an Agilent 1260 Infinity II system with a PDA detector, with an Agilent Poroshell 120-EC18 (50 x 3 mm x 2.7 μm) column. The flow rate was 1 mL min-1 and acetonitrile (1% TFA) and water (1% TFA) were used as solvents, with 4 minute linear gradients from 5 % to 95 % of acetonitrile thermostated at 313 K. […]

[2] = biological target: T1, RAP74-CTD (Homo sapiens, UniProt P35269); experiment: NMR chemical shift perturbation titration of peptides into 15N RAP74-CTD (KD); assay type: binding; conditions: 298 K, pH 7.4; for Kd: 1H-15N BEST-TROSY CSP titration, 15N RAP74-CTD 50 μM, read-out: NMR-derived KD; for KD range in words: NMR CSP titration, RAP74-CTD 50 μM
T1 construct: spanning residues 450-517; His6-MBP (with TEV site) (N, cleaved yes); made in house; host or cells: E. coli Rosetta (DE3)pLysS
T1 sequence (P35269 450-517): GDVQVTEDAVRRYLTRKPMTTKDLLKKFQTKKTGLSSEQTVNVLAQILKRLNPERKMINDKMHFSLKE
Experimental: Recombinant samples with ^15N isotope enrichment of the C-terminal domain of subunit 1 of the general transcription regulator TFIIF (RAP74-CTD), spanning residues 450-517, were obtained as described previously. A codon-optimized synthetic gene cloned in a pDONR221 vector was obtained from GeneArt (Thermo Fisher Scientific, Waltham, MA, USA) and subcloned into a pDEST-His6MBP vector obtained from Addgene. Rosetta (DE3)pLysS competent cells (Novagen, Merck KGaA, Darmstadt, Germany) were grown in MOPS medium with ^15NH4Cl as the only nitrogen source (310 K, induction at OD600 = 0.7, 1 mM IPTG, harvesting 3 h after induction). Soluble fractions of cell lysates from sonication in lysis buffer (50 mM Tris-HCl, 1 M NaCl, 10 mM imidazole, pH 8.0) were purified by IMAC, and fractions containing the His6MBP-TEV-RAP74-CTD fusion were dialyzed at 277 K overnight against cleavage buffer (50 mM Tris-HCl, 200 mM NaCl, 0.5 mM EDTA, pH 8.0) in the presence of TEV protease (50 μg/mL). A second IMAC step was performed and the flow-through containing the RAP-CTD was loaded onto a HiTrap SP HP cation exchange column followed by a size exclusion chromatography step on a Superdex 75 GL 10/300 column equilibrated with NMR buffer (20 mM sodium phosphate, 0.1% trifluoroacetic acid, pH 7.4), both mounted in an Äkta Purifier System (GE Healthcare, Chicago, IL, USA). The sample was concentrated to 100 μM using an Amicon Ultra 15 mL centrifugal filter (Merck KGaA, Darmstadt, Germany).
Before the experiment, both the protein and the peptide were dialyzed (277 K, two dialysis steps) in the same preparation of NMR buffer (20 mM sodium phosphate, 0.1% trifluoroacetic acid, pH 7.4), using a Pur-A-Lyzer (Sigma-Aldrich, Burlington, MA, USA) and a Micro Float-A-Lyzer (Spectrum Laboratories, San Francisco, CA, USA) respectively. The chemical shift assignment of RAP74-CTD was reported previously (BMRB code 27288). Averaged ^1H and ^15N chemical shift perturbations (CSPs) were calculated as:2 ΔδAV=(Δδ1H)^2+1/5Δδ15N^2
Dissociation constants, KD, and averaged CSP amplitude, Δδmax, for δ, δstpl, γ and γstpl peptide binding to RAP74-CTD were obtained by a global fitting (nonlinear regression) of the 10% peaks with the largest averaged CSPs to the following single-site binding model (1:1 stoichiometry):3 Δδ=Δδmax([Protein]+[Peptide]+KD)−([Protein]+[Peptide]+KD)^2−4[Protein][Peptide]/2[Protein]

[3] = Time 0.00 (time unit not given)

Compound	remaining at 0.08 h, 300 μM [1] [%]	remaining at 0.25 h, 300 μM [1] [%]	remaining at 6 h, 300 μM [1] [%]	remaining at 8 h, 300 μM [1] [%]	Kd ([2]; lower bound) [µM]	KD range in words [2]	also measured
KKPGASAAAAQAAQAAQAAQAAQAAQAAKKY [(P3-7)3 Ctrl]	96.4	97.3	115	98.4			peptide in human serum over time, mean [1, 3]: 100.26; remaining at 0.5 h, 300 μM [1]: 114%; remaining at 1 h, 300 μM [1]: 115%; remaining at 4 h, 300 μM [1]: 94.5%; remaining at 24 h, 300 μM [1]: 110%; half-life at 300 μM [1]: > 24 h
KKPGASAAAAQEAQLAQLAQELQAAQAAKKY [δctrl]					> 1000		
CC(C)C[C@@H]1NC(=O)[C@H](CCC(N)=O)NC(=O)C(C)(NC(=O)[C@H](CCC(=O)O)NC(=O)[C@H](CCC(N)=O)NC(=O)[C@H](C)NC(=O)[C@H](C)NC(=O)[C@H](C)NC(=O)[C@H](C)NC(=O)[C@H](CO)NC(=O)[C@H](C)NC(=O)CNC(=O)[C@@H]2CCCN2C(=O)[C@H](CCCCN)NC(=O)[C@@H](N)CCCCN)CCCC=CCCCC(C)(C(=O)N[C@@H](CC(C)C)C(=O)N[C@@H](C)C(=O)N[C@@H](CCC(N)=O)C(=O)N[C@@H](CCC(=O)O)C(=O)N[C@@H](CC(C)C)C(=O)N[C@@H](CCC(N)=O)C(=O)N[C@@H](C)C(=O)N[C@@H](C)C(=O)N[C@@H](CCC(N)=O)C(=O)N[C@@H](C)C(=O)N[C@@H](C)C(=O)N[C@@H](CCCCN)C(=O)N[C@@H](CCCCN)C(=O)N[C@@H](Cc2ccc(O)cc2)C(=O)O)NC(=O)[C@H](C)NC1=O (stereo partly drawn) [δStpl] (H-KKPGASAAAAQE[ξαMeNle(6-ylidene)]QLA[ξαMeNle(6-ylidene)]LAQELQAAQAAKKY-OH; staple 13-17; N-terminus and C-terminus assumed)						millimolar range	
SAAASSSWHTLFTAEEGQLYG [WHTLF, reference compound]					> 1000		
CC(C)C[C@@H]1NC(=O)[C@H](CCC(N)=O)NC(=O)C(C)(NC(=O)[C@H](Cc2c[nH]c3ccccc23)NC(=O)[C@H](CO)NC(=O)[C@H](C)NC(=O)[C@H](CO)NC(=O)[C@H](C)NC(=O)CNC(=O)[C@@H]2CCCN2C(=O)[C@H](CCCCN)NC(=O)[C@@H](N)CCCCN)CCCC=CCCCC(C)(C(=O)N[C@@H](CCC(=O)O)C(=O)N[C@@H](CCC(=O)O)C(=O)N[C@@H](CCC(N)=O)C(=O)N[C@@H](C)C(=O)N[C@@H](C)C(=O)N[C@@H](CCC(N)=O)C(=O)N[C@@H](C)C(=O)N[C@@H](C)C(=O)N[C@@H](CCCCN)C(=O)N[C@@H](CCCCN)C(=O)O)NC(=O)[C@H](Cc2ccccc2)NC1=O (stereo partly drawn) [γStpl]						mid-micromolar range	
KKPGASASWAQLFQEEQAAQAAKK [γCtrl]					> 1000		
KKPGASLAALQELQLLQLLQELQAAQAAKKY [δ]							Kd ([2]; 20 mM sodium phosphate, 0.1% TFA, global fit of 10% peaks with largest CSPs, 1:1 model, error by Monte-Carlo): 131 ± 20 µM
KKPGASLSWLQLFQEEQAAQAAKK [γ]						mid-micromolar range	
C[C@@H](O)[C@H](N)C(=O)N[C@@H](Cc1ccccc1)C(=O)N[C@@H](Cc1ccccc1)C(=O)N[C@@H](Cc1ccc(O)cc1)C(=O)NCC(=O)NCC(=O)N[C@@H](CO)C(=O)N[C@@H](CCCNC(=N)N)C(=O)NCC(=O)N[C@@H](CCCCN)C(=O)N[C@@H](CCCNC(=N)N)C(=O)N[C@@H](CC(N)=O)C(=O)N[C@@H](CC(N)=O)C(=O)N[C@@H](Cc1ccccc1)C(=O)N[C@@H](CCCCN)C(=O)N[C@H](C(=O)N[C@@H](CCC(=O)O)C(=O)N[C@@H](CCC(=O)O)C(=O)N[C@@H](Cc1ccc(O)cc1)C(=O)O)[C@@H](C)O [Angiopep-2, reference compound]	52	72.6	16.7	18.3			peptide in human serum over time, mean [1, 3]: 100.01; remaining at 0.5 h, 300 μM [1]: 32.2%; remaining at 1 h, 300 μM [1]: 73.3%; remaining at 4 h, 300 μM [1]: 24.9%; remaining at 24 h, 300 μM [1]: 22.5%
KKPGASLAALQALQALQALQALQAAQAAKKY [(P3-7)3]	113	120	103	86.3	> 1000		peptide in human serum over time, mean ([1]; Time 0.50 (time unit not given)): 137.50; peptide in human serum over time, mean ([1]; Time 1.00 (time unit not given)): 122.97; peptide in human serum over time, mean ([1]; Time 4.00 (time unit not given)): 139.36; peptide in human serum over time, mean ([1]; Time 24.00 (time unit not given)): 128.28; half-life at 300 μM [1]: > 24 h
